The text below walks through data of patent US12091424B2, “Rapamycin derivatives” (NOVARTIS AG, priority 2017, dated 2024).

By Kd is commonly meant a measure of binding affinity in units of concentration. A higher Kd goes with lower affinity. In general, clearance refers to the volume of plasma or blood freed of the substance per unit of time. What is called half-life is the time needed for the level to fall by half in the phase considered. Low readings indicate rapid decline, high ones slow decline. As usually defined, the bioavailability is the share of a dose that reaches the circulation, judged against a reference dose that is usually intravenous. The term IC50 denotes the concentration that inhibits the measured activity by half.

In one series the target is FKBP51 (Homo sapiens (Human), UniProt Q13451). In words: SPR assay, binding affinity to FKBP51. Particulars: single-cycle kinetics. On the procedure: SPR Assay to Determine Binding Affinity to FK506-Binding Proteins (FKBP). N-terminal avi-his6 tagged FKBP fusions to FKBP12, FKBP51 and FKBP52 were expressed in E. coli and purified using standard chromatography. Each protein was subsequently immobilized on a streptavidin chip in a Biacore 8K SPR instrument (GE Healthcare). Using single-cycle kinetics, compound titrations were flowed at 45 uL/min over each surface using 2-minute association and 30-minute dissociation phases in a buffer containing 50 mM Tris pH 7.5/150 mM NaCl/0.01% Tween 20/1 mM DTT/2% DMSO. The data was fit using low molecular weight (LMW) single-cycle kinetics. The equilibrium dissociation constants (KD) are reported.
(SPR reads the build-up and loss of mass on a sensor chip optically.)

Series [1] concerns S6K1 (Thr389) in FKBP12 knock-down 293T cells. In words: S6K1 (Thr389) phosphorylation ELISA in FKBP12 knock-down 293T cells. It is filed as cell-based. Particulars: 2 hours treatment. Background: In an ELISA, binding on a coated surface is turned into a signal by an enzyme label.
Procedure: Generating FKPB12 knock-down cells. […] Selection was performed with puromycin for 48 hours and cells were plated for colony formation. FKBP12 knock-down clones were screened by immunoblotting with an anti-FKBP12 antibody (Thermo Scientific, Pierce #PA1-026A).
WT, FKBP12 knock-down and FKBP12 knock-out 293T cells were plated at a density of 30,000 cells per well in poly-D-Lysine coated 96-well plates (Corning, #354461) in Dulbecco's modified Eagle's medium (ThermoFisher, #11995-065) supplemented with 10% fetal bovine serum (ThermoFisher, #16140-071). Cells were incubated at 37° C., 5% CO2 for 48 hours until they reached 80% confluence. […] Media supplemented with blank Dimethyl sulfoxide (DMSO) was used as a control for both compounds. Phosphorylated amounts of S6K1 (Thr389) were detected by a sandwich ELISA kit (Cell signaling, #7063C) following the manufacture's protocol.
Series [2] is described as follows: Comparative blood and brain concentrations in rats after oral dosing. The series is classed as in vivo. The settings on record: rat; p.o. 3, 10 and 30 mg/kg; 3 h and 24 h. How it is done:
Concentrations were determined using HPLC/Mass spectrometry. […] Blood and brain tissues were collected at 3 hours (h) and 24 h following treatment to determine concentrations of the compounds.

The nature of the next series: in vivo. Particulars: male, Sprague Dawley, rat, whole blood.
The test system of the next series is mTORC1 pathway. The series is described as follows: Inhibition of mTORC1 pathway in rat liver (p-S6/t-S6 immunoblot). The series is classed as in vivo. How it is done: Protein extraction and immunoblotting. For protein extraction, snap frozen tissues were lysed in MSD Lysis Buffer (MSD, Rockville, Maryland), supplemented with complete EDTA free protease inhibitor and PhosSTOP phosphatase inhibitor tablets (Roche, Manheim, Germany), and centrifuged at 13,000 g for 20 min at 4° C. The resultant supernatant was used for immunoblotting. Protein was quantified with BCA protein assay (Thermo Scientific, MA). Samples were resolved on 4-20% Criterion™ TGX™ Precast Midi Protein gels (Bio-Rad, CA) and transferred onto nitrocellulose membranes (Bio-Rad, CA) using a Trans Turbo Blot system (Bio-Rad, CA). Immunoblotting was performed with antibodies to p-S6 and t-S6 from Cell Signaling Technologies (all 1:1000 in TBS-T with 5% BSA). The ‘p’ and ‘t’ prefixes signify ‘phosphorylated’ and ‘total’ forms respectively. HRP-conjugated secondary antibodies against rabbit (#7074) were from Cell Signaling Technologies, MA. […] Resultant digital images were converted into a TIFF format and quantified using ImageJ software.
The ability of Example 2 to inhibit mTORC1 pathway in vivo was determined in rats aged 4 months (FIG. 5A-5D).
On the technique in general: A western blot detects proteins with antibodies after separation by electrophoresis.

The next series deals with mTORC1 signaling. The series is described as follows: MEF TSC1−/− cell-based assay for rapalog potency (pS6). Also noted: species or system Mouse. Particulars: Mus musculus, MEF TSC1−/− cells; average from multiple assays. How it is done:
Cell-based assay for rapalog potency determination. Rapalog potency was determined using MEF TSC1−/− cell based assay. MEF TSC1−/− cells are Mouse Embryonic Fibroblasts deficient in Tuberous sclerosis protein—TSC1, which negatively regulates mTORC1 signaling and thus display constitutive mTORC1 activation, resulting in phosphorylation (activation) of downstream molecules. This cell-based assay is used to measure inhibition (de-phosphorylation) of S6 and 4EBP1 by rapalogs or other mTOR inhibitors.
MEF TSC1−/− cells were plated on Poly-D-lysine coated 384 well Griener clear bottom plates and incubated overnight at 37° C., 5% CO2. […] Nuclei were visualized with Hoechst (ThermoFisher Scientific #H3570) staining. Cells were imaged (InCell 600) using respective fluorescence channels and the potency of mTOR inhibitors was defined by pS6 IC50 (nM).
In vitro potency of mTOR inhibitors was defined by pS6 IC50 (nM) in MEF TSC1−/− cells.

Chain of FKBP51 (Q13451 whole entry, the tested form may be a part): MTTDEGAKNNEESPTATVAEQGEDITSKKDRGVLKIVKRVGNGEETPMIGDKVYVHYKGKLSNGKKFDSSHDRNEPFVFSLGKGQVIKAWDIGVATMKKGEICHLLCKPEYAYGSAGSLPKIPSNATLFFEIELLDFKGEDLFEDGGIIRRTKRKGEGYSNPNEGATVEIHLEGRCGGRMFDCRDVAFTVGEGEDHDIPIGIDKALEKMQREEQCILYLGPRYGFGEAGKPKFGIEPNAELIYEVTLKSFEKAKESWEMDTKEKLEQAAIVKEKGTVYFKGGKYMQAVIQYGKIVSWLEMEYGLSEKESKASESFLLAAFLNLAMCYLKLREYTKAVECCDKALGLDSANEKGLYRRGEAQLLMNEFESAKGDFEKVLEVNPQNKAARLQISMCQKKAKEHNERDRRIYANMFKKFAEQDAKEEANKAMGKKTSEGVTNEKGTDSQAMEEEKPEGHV

Regarding `CO[C@@H]1C[C@H](C[C@@H](C)[C@@H]2CC[C@H](C)/C=C(\C)[C@@H](O)[C@@H](OC)C(=O)[C@H](C)C[C@H](C)/C=C/C=C/C=C(\C)[C@H](N3CCCS3(=O)=O)C[C@@H]3CC[C@@H](C)[C@@](O)(O3)C(=O)C(=O)N3CCCC[C@H]3C(=O)O2)CC[C@H]1O` [Example 2, (R)—C16-(1,1-dioxidoisothiazolidin-2-yl)-C32-deoxo-rapamycin], at FKBP51, the Kd was greater than 10000 nM. Besides, the “maximum inhibition of S6K1(Thr389)” value in series [1] was 40%. Besides, in series [2], the “blood concentrations compared with RAD001” value is on record as “higher” and the “brain concentrations compared with RAD001” value is given as “higher”. In the series “in vivo” (iv, 1 mg/kg), this molecule gave a clearance of 9 mL/min/kg and a half-life of 9.9 h. The molecule also showed a bioavailability in “in vivo” (oral, 3 mg/kg) of 18%. The “S6 inactivation in rat livers” value with mTORC1 pathway (24 h following dosing with 10 (trend p=0.06) and 30 mg/kg) is “remained inactivated”. In addition, the “de-phosphorylation (inactivation) of S6 in rat livers” value in the series with mTORC1 pathway (single dose 3, 10 and 30 mg/kg, three hours following dosing, vs vehicle) is given as “significant de-phosphorylation”. Besides, in the series on mTORC1 signaling, half-maximal inhibition (IC50) required 0.274 nM.
